Data: PubChem BioAssay (NCI)
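GI50 = concentration required for 50% inhibition of growth. At the TGI there is no net growth.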

Columns and labels:
Assay in all cases: NCI-60 cell line screen, 384-well format
SF-268 CNS = tested on: SF-268 CNS
MCF7 breast = tested on: MCF7 breast
UO-31 renal = tested on: UO-31 renal
ACHN renal = tested on: ACHN renal
NCI-H322M lung = tested on: NCI-H322M lung
U251 glioblastoma = tested on: U251 glioblastoma
SN12C renal = tested on: SN12C renal
HCT-116 colon = tested on: HCT-116 colon
OVCAR-8 ovarian = tested on: OVCAR-8 ovarian
OVCAR-4 ovarian = tested on: OVCAR-4 ovarian
NCI/ADR-RES ovarian = tested on: NCI/ADR-RES ovarian
EKVX NSCLC = tested on: EKVX NSCLC
UACC-62 melanoma = tested on: UACC-62 melanoma
RXF 393 renal = tested on: RXF 393 renal
SNB-19 CNS = tested on: SNB-19 CNS
HOP-62 NSCLC = tested on: HOP-62 NSCLC
LOX IMVI melanoma = tested on: LOX IMVI melanoma
NCI-H226 lung = tested on: NCI-H226 lung
IGROV1 ovarian = tested on: IGROV1 ovarian
MDA-MB-231 breast = tested on: MDA-MB-231 breast
TK-10 renal = tested on: TK-10 renal
K-562 leukemia = tested on: K-562 leukemia
NCI-H460 NSCLC = tested on: NCI-H460 NSCLC
SK-OV-3 ovarian = tested on: SK-OV-3 ovarian
A498 renal = tested on: A498 renal
SF-295 CNS = tested on: SF-295 CNS
CAKI-1 renal = tested on: CAKI-1 renal
786-0 renal = tested on: 786-0 renal
HOP-92 NSCLC = tested on: HOP-92 NSCLC
SF-539 CNS = tested on: SF-539 CNS
PC-3 prostate = tested on: PC-3 prostate
A549 NSCLC = tested on: A549 NSCLC
HCT-15 colon = tested on: HCT-15 colon
OVCAR-3 ovarian = tested on: OVCAR-3 ovarian
KM12 colon = tested on: KM12 colon
OVCAR-5 ovarian = tested on: OVCAR-5 ovarian
HL-60(TB) leukemia = tested on: HL-60(TB) leukemia
MDA-MB-435 melanoma = tested on: MDA-MB-435 melanoma
UACC-257 melanoma = tested on: UACC-257 melanoma
HT29 colon = tested on: HT29 colon
HS 578T breast = tested on: HS 578T breast
HCC-2998 colon = tested on: HCC-2998 colon
NCI-H23 lung = tested on: NCI-H23 lung
MDA-MB-468 breast = tested on: MDA-MB-468 breast
BT-549 breast = tested on: BT-549 breast
SNB-75 CNS = tested on: SNB-75 CNS
M14 melanoma = tested on: M14 melanoma
SW-620 colon = tested on: SW-620 colon
COLO 205 colon = tested on: COLO 205 colon
NCI-H522 lung = tested on: NCI-H522 lung
SK-MEL-28 melanoma = tested on: SK-MEL-28 melanoma
RPMI-8226 leukemia = tested on: RPMI-8226 leukemia
SK-MEL-5 melanoma = tested on: SK-MEL-5 melanoma
MOLT-4 leukemia = tested on: MOLT-4 leukemia
DU-145 prostate = tested on: DU-145 prostate
SR leukemia = tested on: SR leukemia
MALME-3M melanoma = tested on: MALME-3M melanoma
T-47D breast = tested on: T-47D breast

CC(=O)O[C@H]1C(=O)[C@@]2(C)[C@H]([C@H](OC(=O)c3ccccc3)[C@]3(O)C[C@H](OC(=O)[C@H](O)[C@@H](NC(=O)c4ccccc4)c4ccccc4)C(C)=C1C3(C)C)[C@]1(OC(C)=O)CO[C@@H]1C[C@@H]2O
TGI (SF-268 CNS): 31.4 µM
TGI (MCF7 breast): > 46.2 µM
GI50 (UO-31 renal): 0.348 µM
TGI (UO-31 renal): > 69.3 µM
GI50 (ACHN renal): 0.0611 µM
TGI (ACHN renal): 45.8 µM
GI50 (NCI-H322M lung): 0.014 µM
TGI (NCI-H322M lung): > 100 µM
TGI (U251 glioblastoma): > 31.6 µM
TGI (SN12C renal): 99.9 µM
TGI (HCT-116 colon): > 100 µM
TGI (OVCAR-8 ovarian): 0.0102 µM
TGI (OVCAR-4 ovarian): > 69.5 µM
GI50 (NCI/ADR-RES ovarian): 3.1 µM
TGI (NCI/ADR-RES ovarian): 9.24 µM
GI50 (EKVX NSCLC): 0.039 µM
TGI (EKVX NSCLC): > 31.6 µM
TGI (UACC-62 melanoma): 18.8 µM
GI50 (RXF 393 renal): < 0.0116 µM
TGI (RXF 393 renal): 0.022 µM
TGI (SNB-19 CNS): > 71.1 µM
TGI (HOP-62 NSCLC): 14.7 µM
TGI (LOX IMVI melanoma): 37.3 µM
GI50 (NCI-H226 lung): 0.745 µM
TGI (NCI-H226 lung): 19.2 µM
TGI (IGROV1 ovarian): > 67.9 µM
TGI (MDA-MB-231 breast): 22.7 µM
GI50 (TK-10 renal): 0.0337 µM
TGI (TK-10 renal): 28 µM
TGI (K-562 leukemia): < 0.013 µM
TGI (NCI-H460 NSCLC): < 0.013 µM
TGI (SK-OV-3 ovarian): > 31.6 µM
GI50 (A498 renal): 0.0265 µM
TGI (A498 renal): 36.3 µM
GI50 (SF-295 CNS): 0.0114 µM
TGI (SF-295 CNS): 0.0364 µM
GI50 (CAKI-1 renal): 0.0507 µM
TGI (CAKI-1 renal): > 100 µM
GI50 ([…]-0 renal): 0.0191 µM
TGI (786-0 renal): > 54.4 µM
TGI (HOP-92 NSCLC): 28 µM
TGI (SF-539 CNS): 0.0123 µM
TGI (PC-3 prostate): > 100 µM
TGI (A549 NSCLC): > 46.4 µM
GI50 (HCT-15 colon): 0.0889 µM
TGI (HCT-15 colon): 25 µM
TGI (OVCAR-3 ovarian): 0.144 µM
TGI (KM12 colon): > 100 µM
TGI (OVCAR-5 ovarian): > 83.8 µM

CNC(=O)c1ccc(N2C(=S)N(c3ccc(C#N)c(C(F)(F)F)c3)C(=O)C2(C)C)cc1F
GI50 (SF-268 CNS): 72.2 µM
TGI (SF-268 CNS): > 100 µM
GI50 (MCF7 breast): 37.6 µM
TGI (MCF7 breast): > 100 µM
GI50 (UO-31 renal): 63.1 µM
TGI (UO-31 renal): > 100 µM
GI50 (ACHN renal): 19.8 µM
TGI (ACHN renal): 40.4 µM
GI50 (NCI-H322M lung): 93.8 µM
TGI (NCI-H322M lung): > 100 µM
GI50 (HL-60(TB) leukemia): 17 µM
TGI (HL-60(TB) leukemia): 34.5 µM
GI50 (MDA-MB-435 melanoma): > 100 µM
TGI (MDA-MB-435 melanoma): > 100 µM
GI50 (U251 glioblastoma): 61.9 µM
TGI (U251 glioblastoma): > 100 µM
GI50 (UACC-257 melanoma): 72.4 µM
TGI (UACC-257 melanoma): > 100 µM
GI50 (SN12C renal): > 100 µM
TGI (SN12C renal): > 100 µM
GI50 (HT29 colon): 82.9 µM
TGI (HT29 colon): > 100 µM
GI50 (HCT-116 colon): 33.7 µM
TGI (HCT-116 colon): > 100 µM
GI50 (OVCAR-8 ovarian): 37.6 µM
TGI (OVCAR-8 ovarian): > 100 µM
GI50 (OVCAR-4 ovarian): 34.7 µM
TGI (OVCAR-4 ovarian): 92.6 µM
GI50 (NCI/ADR-RES ovarian): 27.5 µM
TGI (NCI/ADR-RES ovarian): 90.9 µM
GI50 (EKVX NSCLC): 44.8 µM
TGI (EKVX NSCLC): > 100 µM
GI50 (HS 578T breast): 30.9 µM
TGI (HS 578T breast): > 100 µM
GI50 (HCC-2998 colon): 93.4 µM
TGI (HCC-2998 colon): > 100 µM
GI50 (UACC-62 melanoma): > 100 µM
TGI (UACC-62 melanoma): > 100 µM
GI50 (RXF 393 renal): 29.6 µM
TGI (RXF 393 renal): 85.7 µM
GI50 (NCI-H23 lung): 31.3 µM
TGI (NCI-H23 lung): > 100 µM
GI50 (MDA-MB-468 breast): 26.9 µM
TGI (MDA-MB-468 breast): 80.2 µM
GI50 (SNB-19 CNS): 85.4 µM
TGI (SNB-19 CNS): > 100 µM
GI50 (HOP-62 NSCLC): 27.5 µM
TGI (HOP-62 NSCLC): 84.9 µM
GI50 (BT-549 breast): 31.7 µM
TGI (BT-549 breast): 95.5 µM
GI50 (LOX IMVI melanoma): 49.6 µM
TGI (LOX IMVI melanoma): > 100 µM
GI50 (NCI-H226 lung): 29.9 µM
TGI (NCI-H226 lung): > 100 µM
GI50 (IGROV1 ovarian): 52.1 µM
TGI (IGROV1 ovarian): > 100 µM
GI50 (MDA-MB-231 breast): 95.6 µM
TGI (MDA-MB-231 breast): > 100 µM
GI50 (SNB-75 CNS): 48.5 µM
TGI (SNB-75 CNS): > 100 µM
GI50 (M14 melanoma): 81.9 µM
TGI (M14 melanoma): > 100 µM
GI50 (TK-10 renal): > 100 µM
TGI (TK-10 renal): > 100 µM
GI50 (SW-620 colon): > 100 µM
TGI (SW-620 colon): > 100 µM
GI50 (COLO 205 colon): 95.5 µM
TGI (COLO 205 colon): > 100 µM
GI50 (NCI-H460 NSCLC): 38.9 µM
TGI (NCI-H460 NSCLC): > 100 µM
GI50 (SK-OV-3 ovarian): > 100 µM
TGI (SK-OV-3 ovarian): > 100 µM
GI50 (NCI-H522 lung): 74 µM
TGI (NCI-H522 lung): > 100 µM
GI50 (SK-MEL-28 melanoma): > 100 µM
TGI (SK-MEL-28 melanoma): > 100 µM
GI50 (A498 renal): 54.7 µM
TGI (A498 renal): > 100 µM
GI50 (SF-295 CNS): 31.6 µM
TGI (SF-295 CNS): > 100 µM
GI50 (CAKI-1 renal): 90.8 µM
TGI (CAKI-1 renal): > 100 µM
GI50 ([…]-0 renal): > 100 µM
TGI (786-0 renal): > 100 µM
GI50 (HOP-92 NSCLC): > 100 µM
TGI (HOP-92 NSCLC): > 100 µM
GI50 (SF-539 CNS): > 100 µM
TGI (SF-539 CNS): > 100 µM
GI50 (RPMI-8226 leukemia): 32 µM
TGI (RPMI-8226 leukemia): > 100 µM
GI50 (SK-MEL-5 melanoma): 41.4 µM
TGI (SK-MEL-5 melanoma): > 100 µM
GI50 (MOLT-4 leukemia): 18.1 µM
TGI (MOLT-4 leukemia): 35.3 µM
GI50 (DU-145 prostate): 37.5 µM
TGI (DU-145 prostate): > 100 µM
GI50 (PC-3 prostate): 49.6 µM
TGI (PC-3 prostate): > 100 µM
GI50 (A549 NSCLC): 34.4 µM
TGI (A549 NSCLC): > 100 µM
GI50 (HCT-15 colon): 46 µM
TGI (HCT-15 colon): > 100 µM
GI50 (OVCAR-3 ovarian): 59.2 µM
TGI (OVCAR-3 ovarian): > 100 µM
GI50 (SR leukemia): 33.5 µM
TGI (SR leukemia): 49.7 µM
GI50 (KM12 colon): 69.1 µM
TGI (KM12 colon): > 100 µM
GI50 (OVCAR-5 ovarian): > 100 µM
TGI (OVCAR-5 ovarian): > 100 µM
GI50 (MALME-3M melanoma): 24.1 µM
TGI (MALME-3M melanoma): > 100 µM
GI50 (T-47D breast): 32.9 µM
TGI (T-47D breast): > 100 µM
